Source: US5110815A, “5-amino-5,6,7,8-tetrahydroquinolines and related compounds and pharmaceutical use” (Hoechst-Roussel Pharmaceuticals Inc., priority 1990, dated 1992)
Counter-ions that a name gives are not always drawn.

How the values were obtained:
[1] = system: scopolamine induced memory deficits; test: dark avoidance assay (reversal of scopolamine induced memory deficit); type: in vivo, male CFW mice; details: sc, scopolamine 3.0 mg/kg sc
Excerpt: The 5-amino-5,6,7,8-tetrahydroquinolines and related compounds of the present invention are useful as agents for the relief of memory dysfunction, particularly dysfunctions associated with decreased cholinergic activity such as those found in Alzheimer's disease. […] In this assay, three groups of 15 male CFW mice were used, a vehicle/vehicle control group, a scopolamine/vehicle group, and a scopolamine/drug group. Thirty minutes prior to training, the vehicle/vehicle control group received normal saline subcutaneously, and the scopolamine/vehicle and scopolamine/drug groups received scopolamine subcutaneously (3.0 mg/kg, administered as scopolamine hydrobromide). Five minutes prior to training, the vehicle/vehicle control and scopolamine/vehicle groups received distilled water and the scopolamine/drug group received the test compound in distilled water.
The training/testing apparatus consisted of a plexiglass box approximately 48 cm long, 30 cm high and tapering from 26 cm wide at the top to 3 cm wide at the bottom. The interior of the box was divided equally by a vertical barrier into a light compartment (illuminated by 25-watt reflector lamp suspended 30 cm from the floor) and a dark compartment (covered). There was a hole at the bottom of the barrier 2.5 cm wide and 6 cm tall and a trap door which could be dropped to prevent an animal from passing between the two compartments. A Coulbourn Instruments small animal shocker was attached to two metal plates which ran the entire length of the apparatus, and a photocell was placed in the dark compartment 7.5 cm from the vertical barrier and 2 cm off the floor. The behavioral session was controlled by PDP 11/34 minicomputer.
At the end of the pretreatment interval, an animal was placed in the light chamber directly under the light fixture, facing away from the door to the dark chamber. The apparatus was then covered and the system activated. If the mouse passed through the barrier to the dark compartment and broke the photocell beam within 180 seconds, the trap door dropped to block escape to the light compartment and an electric shock was administered at an intensity of 0.4 milliamps for three seconds. The animal was then immediately removed from the dark compartment and placed in its home cage. […] The latency in seconds for each mouse was recorded.
The test day latency in seconds for each animal was recorded and the animals were then discarded.
The high degree of variability (due to season of the year, housing conditions, and handling) found in one trial passive avoidance paradigm is well known. To control for this fact, individual cutoff (CO) values were determined for each test, compensating for interest variability. […] Thus, the CO value was defined as the second highest latency time in the control group to more accurately reflect the 1/15 expected control responders in each test group. Experiments with a variety of standards repeated under a number of environmental conditions led to the development of the following empirical criteria: for a valid test, the CO value had to be less than 120 sec and the vehicle/vehicle control group had to have at least 5/15 animals with latencies greater than CO. For a compound to be considered active the scopolamine/compound group had to have at least 3/15 mice with latencies greater than CO.
The results of the dark avoidance test are expressed as the number of animals per group (%) in which this scopolamine induced memory deficit is blocked as measured by an increase in the latency period.

Acetylcholinesterase = molecular target: T1, Acetylcholinesterase (Rattus norvegicus, UniProt P37136); test: in vitro inhibition of acetylcholinesterase activity (modified Ellman assay, rat corpora striata homogenate); type: biochemical, Male Wistar rats; details: acetylthiocholine 5 millimolar final, pH 7.2, 10 min preincubation at 37° C
T1 construct: corpora strita dissected free, weighed and homogenized in 19 volumes; from tissue; host or cells: corpora striata of male Wistar rats, crude homogenate in 0.05 M phosphate buffer pH 7.2
T1 sequence (P37136 32-614): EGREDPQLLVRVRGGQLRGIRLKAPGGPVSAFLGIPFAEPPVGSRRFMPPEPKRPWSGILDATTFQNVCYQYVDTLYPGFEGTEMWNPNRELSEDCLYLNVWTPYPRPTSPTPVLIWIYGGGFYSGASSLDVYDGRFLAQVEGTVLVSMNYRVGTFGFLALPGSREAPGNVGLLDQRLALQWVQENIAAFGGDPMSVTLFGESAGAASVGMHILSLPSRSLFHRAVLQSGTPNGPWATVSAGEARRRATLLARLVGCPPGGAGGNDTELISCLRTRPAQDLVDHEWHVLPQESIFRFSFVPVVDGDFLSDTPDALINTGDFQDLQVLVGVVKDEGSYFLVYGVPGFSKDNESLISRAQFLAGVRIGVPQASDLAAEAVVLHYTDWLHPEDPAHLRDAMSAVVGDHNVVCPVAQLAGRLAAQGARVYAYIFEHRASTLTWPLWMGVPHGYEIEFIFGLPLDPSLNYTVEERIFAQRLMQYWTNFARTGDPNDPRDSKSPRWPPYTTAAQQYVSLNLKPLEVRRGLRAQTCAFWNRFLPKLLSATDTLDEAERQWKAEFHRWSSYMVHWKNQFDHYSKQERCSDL
Method: In this assay, a modification of a test described by G. L. Ellman, et al., Biochem. Pharmacol., 7, 88 (1961), the following reagents are prepared and employed:
1. 0.05M Phosphate Buffer (pH 7.2)
A solution of monobasic sodium phosphate monhydrate (6.85 g) in distilled water (100 ml) is added to a solution of dibasic sodium phosphate heptahydrate (13.4 g) and distilled water (100 ml) until a pH of 7.2 was attained. The solution was diluted 1 to 10 with distilled water.
The 0.05M Phosphate Buffer (pH 7.2) was added to acetylthiocholine (198 mg) to a total volume of 100 ml, i.e., a quantity sufficient (gs) to 100 ml.
3. 5,5-Dithiobisnitrobenzoic Acid in Buffer
The 0.05M Phosphate Buffer (pH 7.2) was added to 5,5-dithiobisnitrobenzoic acid to a total volume of 100 ml, i.e., a quantity sufficient (gs) to 100 ml.
4. Stock Solution of Drug
A 2 millimolar stock solution of the test drug is prepared in a quantity sufficient of a suitable solvent, either acetic acid or dimethyl sulfoxide to volume with 5,5-Dithiobisnitrobenzene Acid in Buffer. Stock Solution of Drug is serially diluted (1:10) so that the final cuvette concentration is 10^-4 molar.
Male Wistar rats are decapitated, brains rapidly removed, corpora strita dissected free, weighed and homogenized in 19 volumes (approximately 7 mg potein/ml) of 0.05M phosphate Buffer (pH 7.2) using a Potter-Elvehjem homogenizer. A 25 μl aliquot of this suspension is added to 1 ml of the vehicle or various concentrations of the test drug and preincubated for 10 minutes at 37° C. Enzyme activity is measured with a Beckman DU-50 spectrophotometer with the following software and instrument settings:
1. Kinetics Soft-Pac™ Module #598273;
6. Cuvettes--2 ml cuvettes using auto 6--sampler;
7. Blank--1 for each substrate concentration;
8. Interval time--15 seconds (15 or 30 seconds for kinetics);
9. Total time--5 minutes (5 or 10 minutes for kinetics);
13. Results--yes (gives slope); and
Reagents are added to the blank and sample cuvettes as follows:
Blank values are determined for each run to control for non-enzymatic hydrolysis of substrate and these values are automatically subtracted by the Kindata program available on kinetics soft-pac module. This program also calculates the rate of absorbance change for each cuvette.
5,5-Dithiobisnitrobenzoic Acid concentration is 0.5 millimolar yielding 0.25 millimolar final concentration. [formula]

SMILES	Percent of Animals with Scopolamine Induced Memory Deficit Reversal ([1]; dose 1.0 mg/kg) [%]	IC50 (Acetylcholinesterase) [µM]	further results
CC(=O)N(OCc1ccccc1)C1CCCc2nc(OCc3ccccc3)ccc21.Cl (stereo not shown) [N-(Phenylmethoxy)-N-[5,6,7,8-tetrahydro-2-(phenylmethoxy)-5-quinolinyl]acetamide hydrochloride]	20	–	–
CNC(=O)Oc1ccc2c(c1)[C@]1(C)CCN(C)[C@@H]1N2C [physostigmine, reference compound]	–	–	Percent of Animals with Scopolamine Induced Memory Deficit Reversal ([1]; dose 0.31 mg/kg): 20%
CC(=O)NC1(C)CCCc2[nH]c(=O)ccc21 (stereo not shown) [N-(1,2,5,6,7,8-Hexahydro-5-methyl-2-oxo-5-quinolinyl)acetamide]	–	–	Percent of Animals with Scopolamine Induced Memory Deficit Reversal ([1]; dose 0.16 mg/kg): 20%
Cn1c2c(ccc1=O)C(NCCc1ccc(Cl)c(Cl)c1)CCC2 (stereo not shown) [5-[[2-(3,4-Dichlorophenyl)ethyl]amino]-5,6,7,8-tetrahydro-1-methyl-2(1H)-quinolinone]	21	2.9	–
CCCn1c2c(ccc1=O)C(NCCc1ccccc1)CCC2 (stereo not shown) [5,6,7,8-Tetrahydro-5-[(2-phenylethyl)amino]-1-propyl-2(1H)-quinolinone fumarate]	–	3.1	–
COc1ccc(CCNC2CCCc3c2ccc(=O)n3C)cc1 (stereo not shown) [5,6,7,8-Tetrahydro-5-[[2-(4-methoxyphenyl)ethyl]amino]-1-methyl-2(1H)-quinolinone]	–	9.6	Percent of Animals with Scopolamine Induced Memory Deficit Reversal ([1]; dose 0.3 mg/kg): 27%
Cn1c2c(ccc1=O)C(NCCc1ccc(Cl)cc1)CCC2 (stereo not shown) [5-[[2-(4-Chlorophenyl)ethyl]amino]-5,6,7,8-tetrahydro-1-methyl-2(1H)-quinolinone]	–	6.6	–
Cl.Cl.Cn1c2c(ccc1=O)C(NCCc1ccccc1)CCC2.O (stereo not shown) [5,6,7,8-Tetrahydro-1-methyl-5-[(2-phenylethyl)amino]-2(1H)-quinolinone dihydrochloride monohydrate]	33	–	–
